Results on two compounds are retold here after US20220304946A1 (priority 2021, published 2022).

The target of experiment [1] is prolyl endopeptidase (PEP) (UniProt P27028). The experiment is described as follows: Kinetic assay of PEP inhibition (Lineweaver-Burk and Dixon plots). In kind it is biochemical. On the procedure:
That in which way it inhibits the PEP catalytic activity i.e. competitive inhibition, non-competitive inhibition, mixed or uncompetitive inhibition. […] The reaction was started post adding four various concentrations of Z-Gly-Pro-pNA (0.2 mM to 0.5 mM). The PEP enzymatic catalysis was assessed at 410 nm via a 96-well plate reader.
Next, using the obtained O.D. results, the Lineweaver-Burk and Dixon plot was generated.
Grafit version-7 (Erithacus Software Limited, UK) was employed for the Kinetic studies.

Experiment [2] has the same target. The experiment is described as follows: PEP inhibitory activity assay (modified Yoshimoto et al. method, Z-Gly-Pro-pNA substrate). The experiment is classed as biochemical. On the procedure:
PEP inhibitory activity was evaluated with minor modification of the Yoshimoto et al. method. Briefly, 150 μL of sodium phosphate buffer (50 mM, pH 7.0), and 10 μL of the test compound (0.5 mM in DMSO) were added into a 96-well plate, followed by adding 20 μL solution containing 0.02 units of PEP enzyme. In the Blank reaction, 20 μL of DMSO was added instead of the test compound, while bacitracin (0.5 mM) was used as the positive control. The incubation of the reaction mixture was carried out for 15 min at 30° C. after which a pre-read was taken at 410 nm. Next, 0.4 mM solution of Z-Gly-Pro-pNA was formed in aqueous 1,4-dioxane (40%), followed by taking the optical density (O.D.) of the reaction mixture at a wavelength of 410 nm for 40 min using a 96-well plate reader (SpectraMax-384, Molecular Devices, CA, USA).
Each reaction was repeated thrice and the differences in the results of each experiment were collectively expressed as the standard error of the mean (SEM).
% Inhibition=100−(O.D. test compound/O.D. Control)×100

SMILES strings stand for the structures. “Also recorded” adds a separate entry of the source. Where two headings read alike, the source gives them in different places. Where a SMILES comes first, the peptide text is derived from it. Bridges are numbered along the chain shown (N, C = ends). [ ]: non-standard residue; d: D form. The star is where a group is joined. Ileψ(thiazoline)Cys = CC[C@H](C)[C@H](N)C1=N[C@H](C(=O)*)CS1; dOrn = NCCC[C@@H](N)C(=O)O

By Ki is commonly meant the dissociation constant of the complex between target and ligand, obtained from inhibition or displacement. Usually IC50 stands for the concentration needed to halve the response being measured.

prolyl endopeptidase (PEP), sequence (P27028 whole entry): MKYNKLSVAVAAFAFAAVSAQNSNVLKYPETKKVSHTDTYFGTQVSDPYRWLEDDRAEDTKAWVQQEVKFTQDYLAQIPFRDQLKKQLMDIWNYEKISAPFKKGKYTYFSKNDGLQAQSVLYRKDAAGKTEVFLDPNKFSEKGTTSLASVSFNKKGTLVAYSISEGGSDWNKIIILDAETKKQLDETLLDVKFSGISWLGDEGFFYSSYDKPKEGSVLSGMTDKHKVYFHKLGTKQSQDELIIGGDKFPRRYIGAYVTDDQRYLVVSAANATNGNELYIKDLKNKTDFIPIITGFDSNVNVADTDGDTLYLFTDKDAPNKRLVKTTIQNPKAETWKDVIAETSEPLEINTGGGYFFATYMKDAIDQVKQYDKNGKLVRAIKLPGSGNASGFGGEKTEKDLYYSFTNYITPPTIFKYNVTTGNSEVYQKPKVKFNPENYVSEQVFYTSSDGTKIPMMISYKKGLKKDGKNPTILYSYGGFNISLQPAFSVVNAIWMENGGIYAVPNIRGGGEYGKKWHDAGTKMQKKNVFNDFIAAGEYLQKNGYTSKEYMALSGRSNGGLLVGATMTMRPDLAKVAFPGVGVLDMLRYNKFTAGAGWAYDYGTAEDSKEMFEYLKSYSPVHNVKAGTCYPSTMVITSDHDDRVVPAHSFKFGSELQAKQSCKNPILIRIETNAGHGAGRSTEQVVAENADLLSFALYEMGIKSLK

`C/C=C/c1ccc(OC)cc1` [trans-anethole, (E)-1-Methoxy-4-(1-propenyl) benzene]: the “type of PEP inhibition” value in experiment [1] (Lineweaver-Burk / Dixon plot) was “competitively inhibited; also recorded: competitive”. In addition, the Ki in experiment [1] (read-out: Ki value, Lineweaver-Burk plot, reconfirmed by Dixon plot) came to 5.656 ± 0.03 µM. Besides, the IC50 in experiment [2] (read-out: PEP inhibitory activity IC50; mean ± SEM, repeated thrice; 30° C., pH 7.0) turned out to be 5.7 ± 1.2 µM.

On to `CC[C@H](C)[C@H](N)C1=N[C@H](C(=O)N[C@@H](CC(C)C)C(=O)N[C@H](CCC(=O)O)C(=O)N[C@H](C(=O)N[C@H]2CCCCNC(=O)[C@H](CC(N)=O)NC(=O)[C@@H](CC(=O)O)NC(=O)[C@H](Cc3cnc[nH]3)NC(=O)[C@@H](Cc3ccccc3)NC(=O)[C@H]([C@@H](C)CC)NC(=O)[C@@H](CCCN)NC2=O)[C@@H](C)CC)CS1` [bacitracin, reference compound] ({Ileψ(thiazoline)Cys}-L[dE]IK[dOrn]I[dF]H[dD]N; lactam 4-C), for which the IC50 in experiment [2] (mean ± SEM, repeated thrice; 30° C., pH 7.0; read-out: PEP inhibitory activity IC50) came to 114 ± 1.2 µM.
